Literature values in US8269040B2, “Derivatives of venlafaxine and methods of preparing and using the same” (Wyeth LLC, priority 1999, dated 2012).

What was measured:
norepinephrine uptake = conditions: in vitro; versus parent compound venlafaxine
dopamine uptake = dopamine uptake (Rattus norvegicus, UniProt P23977); conditions: in vitro; versus parent compound venlafaxine
serotonin uptake = conditions: versus the other enantiomer
[1] = test system: norepinephrine synaptosomal uptake; conditions: versus the other enantiomer

dopamine uptake, sequence (P23977 whole entry): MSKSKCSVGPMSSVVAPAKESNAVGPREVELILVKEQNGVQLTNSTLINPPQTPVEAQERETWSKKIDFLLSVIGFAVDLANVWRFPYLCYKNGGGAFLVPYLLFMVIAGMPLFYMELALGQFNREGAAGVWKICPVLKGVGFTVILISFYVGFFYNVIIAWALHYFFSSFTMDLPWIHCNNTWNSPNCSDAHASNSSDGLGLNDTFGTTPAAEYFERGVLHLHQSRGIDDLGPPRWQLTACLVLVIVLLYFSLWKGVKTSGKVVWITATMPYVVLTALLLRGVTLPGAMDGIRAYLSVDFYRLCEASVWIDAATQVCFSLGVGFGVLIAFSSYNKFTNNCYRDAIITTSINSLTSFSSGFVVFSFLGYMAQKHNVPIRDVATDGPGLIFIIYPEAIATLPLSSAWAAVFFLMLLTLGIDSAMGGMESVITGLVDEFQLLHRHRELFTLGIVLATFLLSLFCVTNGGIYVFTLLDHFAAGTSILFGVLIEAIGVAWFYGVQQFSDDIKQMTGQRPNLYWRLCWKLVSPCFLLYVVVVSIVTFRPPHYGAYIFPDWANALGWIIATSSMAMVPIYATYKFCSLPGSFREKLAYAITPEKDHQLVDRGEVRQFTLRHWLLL

Structure (SMILES): CN(C)CC(c1ccc(O)cc1)C1(O)CCCCC1 (racemic) [O-desmethylvenlafaxine, (±)-1-[2-(dimethylamino)-1-(4-phenol)ethyl]cyclohexanol]
- half-life relative to that of venlafaxine (compared with venlafaxine): approximately 2.5 times
- half-life (t1/2) (in vivo): about 10 hours
- potency as inhibitor of norepinephrine uptake compared with venlafaxine (norepinephrine uptake): more potent inhibitor
- potency as inhibitor of dopamine uptake compared with venlafaxine (dopamine uptake): more potent inhibitor

Structure (SMILES): COc1ccc(C(CN(C)C)C2(O)CCCCC2)cc1 (single isomer, unassigned; (+)) [(+) enantiomer]
- selectivity in inhibiting serotonin uptake, comparison of enantiomers (serotonin uptake): more selective

Structure (SMILES): COc1ccc(C(CN(C)C)C2(O)CCCCC2)cc1 (single isomer, unassigned; (-)) [(−) enantiomer]
- potency as inhibitor of norepinephrine synaptosomal uptake, comparison of enantiomers [1]: more potent inhibitor
